Assay results taken from PubChem BioAssay AID248 (DTP/NCI, 2004).
Several values for one entry are separate records, joined by “and”; a condition that tells them apart may be missing. Equal entries are not always repeated. Toxic doses and inconclusive results are not listed.

System: L1210 leukemia ip in BDF1 mice, survival T/C
Assay: NCI In Vivo Anticancer Drug Screen. Data for tumor model L1210 Leukemia (intraperitoneal) in B6D2F1 (BDF1) mice
Conditions: higher = longer survival
How it was run: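 Each compound was tested against a transplantable tumor grown in mice. The endpoint was survival, with treated animals benchmarked against vehicle controls as a simple ratio.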

COc1cc2cc3c4cc(OC)c(OC)cc4cc[n+]3c(C)c2cc1OC
T/C (endpoint: mean survival time, dose: 12.0 mg/kg/injection, schedule: Q01DX009 (ip), vehicle: saline): 100 % of control | T/C (endpoint: mean survival time, dose: 12.5 mg/kg/injection, schedule: Q01DX009 (ip), vehicle: water): 117 % of control | T/C (endpoint: mean survival time, dose: 16.0 mg/kg/injection, schedule: Q03HX008 (ip), vehicle: saline): 122 % of control | T/C (endpoint: mean survival time, dose: 16.0 mg/kg/injection, schedule: Q03HX016 (ip), vehicle: saline): 122 % of control | T/C (endpoint: mean survival time, dose: 25.0 mg/kg/injection, schedule: Q01DX009 (ip), vehicle: saline): 117 % of control | T/C (endpoint: mean survival time, dose: 32.0 mg/kg/injection, schedule: Q03HX008 (ip), vehicle: saline): 118 % of control | T/C (endpoint: mean survival time, dose: 32.0 mg/kg/injection, schedule: Q03HX024 (ip), vehicle: saline): 124 % of control | T/C (endpoint: mean survival time, dose: 50.0 mg/kg/injection, schedule: Q01DX009 (ip), vehicle: saline sonified): 115 % of control | T/C (endpoint: mean survival time, dose: 50.0 mg/kg/injection, schedule: Q04DX002 (ip), vehicle: saline): 120 % of control | T/C (endpoint: mean survival time, dose: 50.0 mg/kg/injection, schedule: Q04DX003 (ip), vehicle: saline): 116 % of control | T/C (endpoint: mean survival time, dose: 64.0 mg/kg/injection, schedule: Q03HX008 (ip), vehicle: saline): 122 % of control | T/C (endpoint: mean survival time, dose: 100.0 mg/kg/injection, schedule: Q01DX009 (ip), vehicle: saline sonified): 115 % of control | T/C (endpoint: mean survival time, dose: 100.0 mg/kg/injection, schedule: Q01DX009 (ip), vehicle: saline): 110 % of control and 119 % of control | T/C (endpoint: mean survival time, dose: 100.0 mg/kg/injection, schedule: Q04DX002 (ip), vehicle: saline): 123 % of control | T/C (endpoint: mean survival time, dose: 100.0 mg/kg/injection, schedule: Q04DX003 (ip), vehicle: saline): 108 % of control | T/C (endpoint: mean survival time, dose: 128.0 mg/kg/injection, schedule: Q01DX001 (ip), vehicle: saline): 117 % of control | T/C (endpoint: mean survival time, dose: 128.0 mg/kg/injection, schedule: Q01DX009 (ip), vehicle: saline): 120 % of control | T/C (endpoint: mean survival time, dose: 128.0 mg/kg/injection, schedule: Q03HX008 (ip), vehicle: saline): 124 % of control | T/C (endpoint: mean survival time, dose: 128.0 mg/kg/injection, schedule: Q04DX003 (ip), vehicle: saline): 114 % of control | T/C (endpoint: mean survival time, dose: 128.0 mg/kg/injection, schedule: Q08DX002 (ip), vehicle: saline): 122 % of control | T/C (endpoint: mean survival time, dose: 200.0 mg/kg/injection, schedule: Q01DX009 (ip), vehicle: saline sonified): 112 % of control | T/C (endpoint: mean survival time, dose: 200.0 mg/kg/injection, schedule: Q04DX002 (ip), vehicle: saline): 120 % of control | T/C (endpoint: mean survival time, dose: 256.0 mg/kg/injection, schedule: Q01DX001 (ip), vehicle: saline): 117 % of control | T/C (endpoint: mean survival time, dose: 256.0 mg/kg/injection, schedule: Q08DX002 (ip), vehicle: saline): 118 % of control | T/C (endpoint: mean survival time, dose: 400.0 mg/kg/injection, schedule: Q01DX009 (ip), vehicle: water): 151 % of control | T/C (endpoint: mean survival time, dose: 400.0 mg/kg/injection, schedule: Q04DX002 (ip), vehicle: saline): 116 % of control and 118 % of control | T/C (endpoint: mean survival time, dose: 400.0 mg/kg/injection, schedule: Q04DX003 (ip), vehicle: saline): 120 % of control | T/C (endpoint: mean survival time, dose: 512.0 mg/kg/injection, schedule: Q01DX001 (ip), vehicle: saline): 119 % of control | T/C (endpoint: mean survival time, dose: 512.0 mg/kg/injection, schedule: Q08DX002 (ip), vehicle: saline): 120 % of control | T/C (endpoint: mean survival time, dose: 1024.0 mg/kg/injection, schedule: Q04DX003 (ip), vehicle: saline): 106 % of control | T/C (endpoint: median survival time, dose: 16.0 mg/kg/injection, schedule: Q03HX008 (ip), vehicle: saline): 122 % of control | T/C (endpoint: median survival time, dose: 16.0 mg/kg/injection, schedule: Q03HX024 (ip), vehicle: saline): 122 % of control | T/C (endpoint: median survival time, dose: 32.0 mg/kg/injection, schedule: Q01DX009 (ip), vehicle: saline): 122 % of control | T/C (endpoint: median survival time, dose: 50.0 mg/kg/injection, schedule: Q01DX009 (ip), vehicle: saline): 105 % of control and 109 % of control | T/C (endpoint: median survival time, dose: 62.5 mg/kg/injection, schedule: Q01DX009 (ip), vehicle: saline): 120 % of control | T/C (endpoint: median survival time, dose: 64.0 mg/kg/injection, schedule: Q01DX001 (ip), vehicle: saline): 122 % of control | T/C (endpoint: median survival time, dose: 64.0 mg/kg/injection, schedule: Q01DX009 (ip), vehicle: saline): 122 % of control | T/C (endpoint: median survival time, dose: 64.0 mg/kg/injection, schedule: Q01DX009 (oral), vehicle: saline): 100 % of control | T/C (endpoint: median survival time, dose: 64.0 mg/kg/injection, schedule: Q01DX009 (sc), vehicle: saline): 100 % of control | T/C (endpoint: median survival time, dose: 64.0 mg/kg/injection, schedule: Q03HX008 (ip), vehicle: saline): 122 % of control | T/C (endpoint: median survival time, dose: 64.0 mg/kg/injection, schedule: Q04DX003 (ip), vehicle: saline): 122 % of control | T/C (endpoint: median survival time, dose: 64.0 mg/kg/injection, schedule: Q08DX002 (ip), vehicle: saline): 111 % of control | T/C (endpoint: median survival time, dose: 125.0 mg/kg/injection, schedule: Q01DX009 (ip), vehicle: saline): 120 % of control | T/C (endpoint: median survival time, dose: 128.0 mg/kg/injection, schedule: Q01DX001 (ip), vehicle: saline): 122 % of control | T/C (endpoint: median survival time, dose: 128.0 mg/kg/injection, schedule: Q01DX009 (ip), vehicle: saline): 122 % of control | T/C (endpoint: median survival time, dose: 128.0 mg/kg/injection, schedule: Q01DX009 (oral), vehicle: saline): 105 % of control | T/C (endpoint: median survival time, dose: 128.0 mg/kg/injection, schedule: Q01DX009 (sc), vehicle: saline): 100 % of control | T/C (endpoint: median survival time, dose: 128.0 mg/kg/injection, schedule: Q04DX003 (ip), vehicle: saline): 122 % of control | T/C (endpoint: median survival time, dose: 128.0 mg/kg/injection, schedule: Q08DX002 (ip), vehicle: saline): 122 % of control | T/C (endpoint: median survival time, dose: 256.0 mg/kg/injection, schedule: Q01DX009 (oral), vehicle: saline): 111 % of control | T/C (endpoint: median survival time, dose: 256.0 mg/kg/injection, schedule: Q01DX009 (sc), vehicle: saline): 94 % of control | T/C (endpoint: median survival time, dose: 256.0 mg/kg/injection, schedule: Q08DX002 (ip), vehicle: saline): 122 % of control | T/C (endpoint: median survival time, dose: 512.0 mg/kg/injection, schedule: Q01DX001 (ip), vehicle: saline): 122 % of control | T/C (endpoint: median survival time, dose: 512.0 mg/kg/injection, schedule: Q01DX009 (oral), vehicle: saline): 100 % of control | T/C (endpoint: median survival time, dose: 512.0 mg/kg/injection, schedule: Q01DX009 (sc), vehicle: saline): 100 % of control | T/C (endpoint: median survival time, dose: 512.0 mg/kg/injection, schedule: Q04DX003 (ip), vehicle: saline): 122 % of control | T/C (endpoint: median survival time, dose: 1024.0 mg/kg/injection, schedule: Q01DX009 (oral), vehicle: saline): 88 % of control | T/C (endpoint: median survival time, dose: 1024.0 mg/kg/injection, schedule: Q01DX009 (sc), vehicle: saline): 100 % of control | T/C (endpoint: median survival time, dose: 1024.0 mg/kg/injection, schedule: Q08DX002 (ip), vehicle: saline): 122 % of control | T/C (endpoint: median survival time, dose: 1600.0 mg/kg/injection, schedule: Q01DX009 (ip), vehicle: saline): 90 % of control

CCCCOC(=O)c1ccc(NC(=O)NCCC)cc1
T/C (endpoint: mean survival time, dose: 100.0 mg/kg/injection, schedule: Q01DX009 (ip), vehicle: saline with Tween-80): 90 % of control | T/C (endpoint: mean survival time, dose: 200.0 mg/kg/injection, schedule: Q01DX009 (ip), vehicle: saline with Tween-80): 88 % of control | T/C (endpoint: mean survival time, dose: 400.0 mg/kg/injection, schedule: Q01DX009 (ip), vehicle: saline with Tween-80): 95 % of control

COc1cc(C)c(C=O)cc1OC
T/C (endpoint: mean survival time, dose: 5.0 mg/kg/injection, schedule: Q01DX001 (ip), vehicle: saline): 103 % of control | T/C (endpoint: mean survival time, dose: 10.0 mg/kg/injection, schedule: Q01DX001 (ip), vehicle: saline): 107 % of control | T/C (endpoint: mean survival time, dose: 20.0 mg/kg/injection, schedule: Q01DX001 (ip), vehicle: saline): 97 % of control | T/C (endpoint: mean survival time, dose: 40.0 mg/kg/injection, schedule: Q01DX001 (ip), vehicle: saline): 101 % of control | T/C (endpoint: mean survival time, dose: 80.0 mg/kg/injection, schedule: Q01DX001 (ip), vehicle: saline): 109 % of control

c1ccc(CN(CCCOc2ccccc2)Cc2ccccc2)cc1
T/C (endpoint: mean survival time, dose: 100.0 mg/kg/injection, schedule: Q04DX003 (ip), vehicle: saline with Tween-80): 103 % of control | T/C (endpoint: mean survival time, dose: 200.0 mg/kg/injection, schedule: Q04DX003 (ip), vehicle: saline with Tween-80): 103 % of control | T/C (endpoint: mean survival time, dose: 400.0 mg/kg/injection, schedule: Q04DX003 (ip), vehicle: saline with Tween-80): 97 % of control
